From patent US7713994B2 (Wyeth LLC, priority 2005, dated 2010)
Where two headings read alike, the source gives them in different places.

Key:
[1] = target: T1, cyclin D1/cdk 4 enzyme (Homo sapiens, UniProt P11802); assay: CDK4 ELISA kinase assay (phospho-Rb ser 795 detection); format: biochemical; conditions: In Vitro Enzyme Assay, cyclin D1/cdk 4, read-out: CDK4 IC50
T1 construct: made in house; host or cells: Sf9 insect cells, recombinant baculovirus
Summary of the method: (§1)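 GST-Rb C-terminal fragment coated on wells; kinase reaction: 200 μM ATP, 0.5 mg/ml BSA, HEPES pH 7.5, 10 mM MgCl2, baculovirus/Sf9 cyclin-CDK, 30° C, 1 h. Readout anti-phospho-Rb Ser795, HRP, TMB, A450. Test compound 10 ug/ml final.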

[2] = target: T2, cyclin E/CDK2 enzyme (Homo sapiens, UniProt P24941); assay: CDK2 ELISA kinase assay (phospho-Rb ser 795 detection); format: biochemical; conditions: In Vitro Enzyme Assay, cyclin E/CDK2, read-out: CDK2 IC50
T2 construct: made in house; host or cells: Sf9 insect cells, recombinant baculovirus
Summary of the method: as §1

[3] = target: T3, cyclin B/CDK1 enzyme (Homo sapiens, UniProt P06493); assay: CDK1 ELISA kinase assay (phospho-Rb ser 795 detection); format: biochemical; conditions: In Vitro Enzyme Assay, cyclin B/CDK1, read-out: CDK1 IC50
T3 construct: purchased New England BioLabs; host or cells: Sf9 insect cells, recombinant baculovirus
Summary of the method: as §1

[4] = system: BT474; assay: Cytotoxicity assay (SRB), BT474; format: cell-based; conditions: BT474 cells, 6 days, SRB, read-out: In Vitro Cellular Activity IC50 BT474
Summary of the method: (§2)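 Cells seeded overnight at 37 °C, 7% CO2 (BT474 12000, HCT-116 4000, LoVo and MCF-7 6000 cells/well) in RPMI 1640 with 5% FBS, then exposed to compound dilutions for 3 days (BT474 6 days). Survival versus untreated controls by TCA fixation and SRB staining, absorbance 540 nm.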

[5] = system: HCT-116; assay: Cytotoxicity assay (SRB), HCT-116; format: cell-based; conditions: HCT116 cells, 3 days, SRB, read-out: In Vitro Cellular Activity IC50 HCT116
Summary of the method: as §2

[6] = system: LoVo; assay: Cytotoxicity assay (SRB), LoVo; format: cell-based; conditions: LoVo cells, 3 days, SRB, read-out: In Vitro Cellular Activity IC50 LOVO
Summary of the method: as §2

[7] = system: MCF-7; assay: Cytotoxicity assay (SRB), MCF-7; format: cell-based; conditions: MCF-7 cells, 3 days, SRB, read-out: In Vitro Cellular Activity IC50 MCF-7
Summary of the method: as §2

T1 sequence (P11802 whole entry, species assumed): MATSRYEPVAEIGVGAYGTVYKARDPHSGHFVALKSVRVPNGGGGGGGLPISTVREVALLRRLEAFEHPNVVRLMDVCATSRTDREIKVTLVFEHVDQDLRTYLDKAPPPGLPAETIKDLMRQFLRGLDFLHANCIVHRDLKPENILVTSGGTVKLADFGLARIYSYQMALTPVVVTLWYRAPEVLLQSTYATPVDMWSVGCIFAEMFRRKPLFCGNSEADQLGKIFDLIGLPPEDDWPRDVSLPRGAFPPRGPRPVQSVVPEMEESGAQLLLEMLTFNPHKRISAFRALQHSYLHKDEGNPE
T1 sequence (P24385 whole entry partner, species assumed): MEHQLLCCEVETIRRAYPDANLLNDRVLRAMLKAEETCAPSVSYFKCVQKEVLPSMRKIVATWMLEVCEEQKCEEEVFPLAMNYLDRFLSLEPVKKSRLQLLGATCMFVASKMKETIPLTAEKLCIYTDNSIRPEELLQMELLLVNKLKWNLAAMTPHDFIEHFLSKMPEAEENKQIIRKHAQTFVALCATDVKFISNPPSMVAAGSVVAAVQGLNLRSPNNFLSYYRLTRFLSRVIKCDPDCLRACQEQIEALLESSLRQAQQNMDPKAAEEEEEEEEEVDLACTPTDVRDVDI
T3 sequence (P06493 whole entry): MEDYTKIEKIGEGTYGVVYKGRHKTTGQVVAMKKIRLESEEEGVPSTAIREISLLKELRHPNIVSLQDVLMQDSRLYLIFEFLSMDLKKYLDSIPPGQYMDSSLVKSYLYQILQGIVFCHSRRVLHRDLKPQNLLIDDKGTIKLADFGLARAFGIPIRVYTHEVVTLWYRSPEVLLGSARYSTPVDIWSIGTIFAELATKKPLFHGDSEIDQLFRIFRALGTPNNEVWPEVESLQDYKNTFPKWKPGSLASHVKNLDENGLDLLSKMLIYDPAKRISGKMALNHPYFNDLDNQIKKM
T3 sequence (P14635 whole entry partner): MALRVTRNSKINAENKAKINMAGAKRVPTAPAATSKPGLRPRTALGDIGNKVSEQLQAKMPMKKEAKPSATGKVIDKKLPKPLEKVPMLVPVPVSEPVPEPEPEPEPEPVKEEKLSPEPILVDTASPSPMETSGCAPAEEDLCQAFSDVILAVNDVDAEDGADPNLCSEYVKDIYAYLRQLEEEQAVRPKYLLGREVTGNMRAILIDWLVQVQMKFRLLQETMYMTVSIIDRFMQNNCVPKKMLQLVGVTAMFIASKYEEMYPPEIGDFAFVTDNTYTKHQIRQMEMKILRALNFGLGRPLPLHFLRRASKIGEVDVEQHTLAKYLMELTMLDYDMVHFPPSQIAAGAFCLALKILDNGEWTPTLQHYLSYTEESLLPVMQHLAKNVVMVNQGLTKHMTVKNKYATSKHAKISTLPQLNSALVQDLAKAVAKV

SMILES	IC50 [1] [nM]	IC50 [2] [nM]	IC50 [3] [nM]	IC50 ([4]; Homo sapiens, BT-474, 144 h) [nM]	IC50 ([5]; Homo sapiens, HCT-116, 72 h) [nM]	IC50 ([6]; Homo sapiens, LoVo, 72 h) [nM]	IC50 ([7]; Homo sapiens, MCF7, 72 h) [nM]	IC50 [4] [nM]	IC50 [5] [nM]	IC50 [6] [nM]	IC50 [7] [nM]
O=C1NC(=O)c2ccc(I)cc2/C1=C/NCc1cc(O)ccc1I [Example 496, 4-[(5-Hydroxy-2-iodo-benzylamino)-methylene]-6-iodo-4H-isoquinoline-1,3-dione]	2700	> 50000	> 50000	7400	2600	3100	5400				
CN1CCN(c2ccc(N/C=C3\C(=O)NC(=O)c4ccc(-c5ccoc5)cc43)c(F)n2)CC1 [Example 497, (4Z)-4-({[2-Fluoro-6-(4-methylpiperazin-1-yl)pyridin-3-yl]amino}methylene)-6-(3-furyl)isoquinoline-1,3(2H,4H)-dione]	370	> 50000	> 50000					2700	2600	3200	1400
CN1CCN(c2ccc(N/C=C3\C(=O)NC(=O)c4ccc(-c5ccoc5)cc43)c(F)n2)CC1 [Example 498, (4Z)-4-({[2-Fluoro-6-(4-methylpiperazin-1-yl)pyridin-3-yl]amino}methylene)-6-(3-furyl)isoquinoline-1,3(2H,4H)-dione]	210	32400	19300					1000	1100	1600	3500
O=C1NC(=O)c2ccc(-c3ccco3)cc2/C1=C/NCc1cc(O)ccc1I [Example 503, 6-Furan-2-yl-4-[(5-hydroxy-2-iodo-benzylamino)-methylene]-4H-isoquinoline-1,3-dione]	20	34700	> 50000	1600	5200	5100	1000				
O=C1NC(=O)c2ccc(I)cc2/C1=C/NCc1cc(O)c(OCCN2CCCC2)cn1 [Example 522, 4-({[4-Hydroxy-5-(2-pyrrolidin-1-yl-ethoxy)-pyridin-2-ylmethyl]-amino}-methylene)-6-iodo-4H-isoquinoline-1,3-dione]	110	4500	32400	2130	1420	1190	990				
CN(C)CC(=O)Nc1ccc(CN/C=C2\C(=O)NC(=O)c3ccc(I)cc32)cc1O [Example 526, N^1-[2-Hydroxy-4-({[(Z)-(6-iodo-1,3-dioxo-2,3-dihydroisoquinolin-4(1H)-ylidene)methyl]amino}methyl)phenyl]-N^2,N^2-dimethylglycinamide]	20	500	2100	7200	2400	5600	3300				
CCCCn1ccc(CN/C=C2\C(=O)NC(=O)c3ccc(I)cc32)cc1=O [Example 529, (4Z)-6-Iodo-4-({[(1-butyl-2-oxo-1,2-dihydropyridin-4-yl)methyl]amino}methylene)isoquinoline-1,3(2H,4H)-dione]	100	5000	22400	1200	1700	1500	2400				
CCN(CC)Cc1ccc(NC=C2C(=O)NC(=O)c3ccccc32)cc1 [Example 574, 4-[(4-Diethylaminomethyl-phenylamino)-methylene]-4H-isoquinoline-1,3-dione]	5500	30400	18500	10600	10300	29800	14000				
CCCN(Cc1ccc(NC=C2C(=O)NC(=O)c3ccccc32)cc1)CC1CC1 [Example 575, 4-({4-[(Cyclopropylmethyl-propyl-amino)-methyl]-phenylamino}-methylene)-4H-isoquinoline-1,3-dione]	9200	> 50000	11800	28100	16600	21800	20300				

More lines, main results first:

IC50 [1] [nM]	IC50 [2] [nM]	IC50 [3] [nM]	SMILES	IC50 ([4]; Homo sapiens, BT-474, 144 h) [nM]	IC50 ([5]; Homo sapiens, HCT-116, 72 h) [nM]	IC50 ([6]; Homo sapiens, LoVo, 72 h) [nM]	IC50 ([7]; Homo sapiens, MCF7, 72 h) [nM]	IC50 [4] [nM]	IC50 [5] [nM]	IC50 [6] [nM]	IC50 [7] [nM]
5400	41500	> 50000	O=C1NC(=O)c2ccc(I)cc2/C1=C/NCc1cc(O)ccc1-c1ccco1 [Example 499, 4-[(2-Furan-2-yl-5-hydroxy-benzylamino)-methylene]-6-iodo-4H-isoquinoline-1,3-dione]	9800	4800	8400	9100				
140	15100	43400	O=C1NC(=O)c2ccc(I)cc2/C1=C/NCc1ccc(-c2ccc(F)cc2)c(O)c1 [Example 500, 4-{[(4′-Fluoro-2-hydroxy-biphenyl-4-ylmethyl)-amino]-methylene}-6-iodo-4H-isoquinoline-1,3-dione]	2300	1900	1800	3800				
30	29300	> 50000	O=C1NC(=O)c2ccc(-c3ccco3)cc2/C1=C/NCc1ccc(-c2ccc(F)cc2)c(O)c1 [Example 501, 4-{[(4′-Fluoro-2-hydroxy-biphenyl-4-ylmethyl)-amino]-methylene}-6-furan-2-yl-4H-isoquinoline-1,3-dione]	3500	2600	2900	1400				
8	> 50000	> 50000	O=C1NC(=O)c2ccc(I)cc2/C1=C/NCc1ccc(I)c(O)c1 [Example 504, 4-[(3-Hydroxy-4-iodo-benzylamino)-methylene]-6-iodo-4H-isoquinoline-1,3-dione]	1000	3900	4300	1500				
170	13200	> 50000	CN(C)C1CCN(Cc2ccc(N/C=C3\C(=O)NC(=O)c4ccc(-c5ccoc5)cc43)cc2)C1 (stereo not shown) [Example 513, (4Z)-4-{[(4-{[3-(Dimethylamino)pyrrolidin-1-yl]methyl}phenyl)amino]methylene}-6-(3-furyl)isoquinoline-1,3(2H,4H)-dione]	1840	1540	3450	2530				
220	> 50000	> 50000	O=C1NC(=O)c2ccc(I)cc2/C1=C/NCc1ccc(NC(=O)c2ccco2)c(O)c1 [Example 516, N-[2-Hydroxy-4-({[(Z)-(6-iodo-1,3-dioxo-2,3-dihydroisoquinolin-4(1H)-ylidene)methyl]amino}methyl)phenyl]-2-furamide]	18200	3830	21400	24100				
10	6500	17300	CN(C)Cc1cccc(-c2ccc(CN/C=C3\C(=O)NC(=O)c4ccc(I)cc43)cc2O)c1 [Example 519, 4-{[(3′-Dimethylaminomethyl-2-hydroxy-biphenyl-4-ylmethyl)-amino]-methylene}-6-iodo-4H-isoquinoline-1,3-dione]	2200	820	1400	1000				
30	3500	6400	CC(C)(C)c1ccc2c(c1)/C(=C/NCc1ccn(-c3ccoc3)c(=O)c1)C(=O)NC2=O [Example 533, (4Z)-6-tert-Butyl-4-[({[1-(3-furyl)-2-oxo-1,2-dihydropyridin-4-yl]methyl}amino)methylene]isoquinoline-1,3(2H,4H)-dione]	490	1500	730	1500				
90	> 50000	> 50000	CC(C)(C)c1ccc2c(c1)/C(=C/NCc1cc(O)c(-c3ccoc3)cc1F)C(=O)NC2=O [Example 534, 6-tert-Butyl-4-[(2-fluoro-4-furan-3-yl-5-hydroxy-benzylamino)-methylene]-4H-isoquinoline-1,3-dione]	730	1600	1200	2600				
20	3100	> 50000	O=C1NC(=O)c2ccc(C3CCCC3)cc2/C1=C/NCc1ccc(-c2ccoc2)c(O)c1 [Example 536, 6-Cyclopentyl-4-[(4-furan-3-yl-3-hydroxy-benzylamino)-methylene]-4H-isoquinoline-1,3-dione]	430	1100	510	2100				
